For data set [1], the system named is Smad2/Smad3 phosphorylation. The data set can be described thus: Phospho-Smad2/3 Inhibition Assay (western blot), Panc-1. In kind it is cell-based, human. The note with it: at 10 μM, Panc-1 pancreatic cancer cell line; starred symbols = activation. Summed up: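 Panc-1 cells (KRas G12D), starved overnight in 0.5% FBS, treated 3 h at 37° C with compound at 10 μM final (0.3% DMSO) or serial dilutions for IC50, then stimulated with 10 ng/ml TGF-b1 for 1 h. Phospho-Smad2 (Ser465/467) and phospho-Smad3 (Ser423/425) detected by western blot.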

Data set [2] in a line: Kinetic Solubility Assay in pH 7.4 Buffer + 2% DMSO. In kind it is physicochemical. The note with it: phosphate-buffered saline pH 7.4 with 2% DMSO, aqueous buffer, kinetic from dmso stock, 25° C., two hours. As to the method: Biological Example 9: Kinetic Solubility
Kinetic solubility assay in pH 7.4 Buffer+2% DMSO (“Kinetic Solubility Assay) was performed according to the following protocol: Briefly, using a 20 mM stock solution of the tested compounds in 100% DMSO, dilutions were prepared to a theoretical concentration of 400 μM in duplicates in phosphate-buffered saline pH 7.4 (138 mM NaCl, 2.7 mM KCl, 10 mM K-phosphate) with 2% final DMSO. The tested compounds dilutions in PBS were further allowed to equilibrate at 25° C. on a thermostatic shaker for two hours and then filtered through HTS filter plates using a vacuum manifold. The filtrates of the test compounds were diluted 2-fold with acetonitrile with 2% DMSO before measuring.
In parallel, using a 20 mM stock solution of the tested compounds in 100% DMSO, dilutions were prepared to theoretical concentrations of 0 μM (blank), 10 μM, 25 μM, 50 μM, 100 μM, and 200 μM in 50% acetonitrile/PBS with 2% final DMSO to generate calibration curves. Ondansetron was used as a reference compound to control proper assay performance. 200 μL of each sample was transferred to a 96-well plate and measured in the 230-550 nm range with a 5 nm step.
The concentrations of compounds in PBS filtrate are calculated using a dedicated Microsoft Excel calculation script. Proper absorbance wavelengths for calculations are selected for each compound manually based on absorbance maximums (absolute absorbance unit values for the minimum and maximum concentration points within the 0-3 OD range). Each final dataset is visually evaluated by the operator, and goodness of fit (R2) is calculated for each calibration curve. The effective range of this assay is approximately 2-400 μM and the compounds returning values close to the upper limit of the range may have higher actual solubility (e.g., 5′-deoxy-5-fluorouridine).
Table 8 show kinetic solubility data for selected compounds tested in the Kinetic Solubility assay described above.

Data set [3] is described as follows: Mouse Liver Microsome Metabolic Stability Assay. In kind it is in vitro ADME. The settings on record: pH 7.4, Mouse liver microsomes, 37° C., NADPH, read-out: t½. As for the experimental part: Biological Example 10: Assessment of Metabolic Stability in Mouse Liver Microsomes
Metabolic Stability Assay: Microsomal incubations were carried out in 96-well plates in 5 aliquots of 30 μL each (one for each time point). Liver microsomal incubation medium comprised of phosphate buffer (100 mM, pH 7.4), MgCl2 (3.3 mM), NADPH (3 mM), glucose-6-phosphate (5.3 mM), glucose-6-phosphate dehydrogenase (0.67 units/ml) with 0.42 mg of liver microsomal protein per mL. In the control reactions the NADPH-cofactor system was substituted with phosphate buffer. Test compounds (2 μM, final solvent concentration 1.6%) were incubated with microsomes at 37° C., shaking at 100 rpm. Each reaction was performed in duplicates. Five time points over 40 minutes were analyzed. The reactions were stopped by adding 5 volumes of methanol containing internal standard to incubation aliquots, followed by protein sedimentation by centrifuging at 5500 rpm for 4 minutes. Supernatants were analyzed using the HPLC system coupled with tandem mass spectrometer.
The elimination constant (kel), half-life (t1/2) and intrinsic clearance (Clint) were determined in plot of […] versus time, using linear regression analysis:
In order to indicate the quality of the linear regression analysis, the R (correlation coefficient) values are provided. In some cases, the last time point is excluded from the calculations to ensure acceptable logarithmic linearity of decay.
Table 9 show metabolic stability data for selected compounds tested in the Mouse Liver Microsome Metabolic Stability assay described above.
On the technique in general: Liver microsomes are a subcellular fraction often used to study metabolism.

Molecules are shown by their SMILES.

As a reminder, the solubility is the concentration that dissolves in the medium under given conditions.

With `CCOc1ccnc(Nc2nc(-c3nccn3C)nn3cc(-c4ccn(C5CC5)n4)c(C)c23)c1` [Compound 141, 6-(1-Cyclopropyl-1H-pyrazol-3-yl)-N-(4-ethoxypyridin-2-yl)-5-methyl-2-(1-methyl-1H-imidazol-2-yl)pyrrolo[2,1-f][1,2,4]triazin-4-amine], the “% inh of Smad2/3 phosphorylation in Panc-1” value (“% inh” for short) in data set [1] was “D (D = 76-100% inhibition)”. Moreover, the solubility at 2 h in data set [2] was 10 to 30 µM. The half-life at 2 µM in data set [3] was greater than 10 min.

With `COc1cc(Nc2nc(-c3nccn3C)nn3cc(-c4ccn(C(C)C)n4)c(C)c23)ncn1` [Compound 6, 6-(1-Isopropyl-1H-pyrazol-3-yl)-N-(6-methoxypyrimidin-4-yl)-5-methyl-2-(1-methyl-1H-imidazol-2-yl)pyrrolo[2,1-f][1,2,4]triazin-4-amine], in data set [1], the “% inh” value is given as 0 (0 = 0% inhibition). Further, the solubility at 2 h in data set [2] is less than 10 µM. Also, the half-life at 2 µM in data set [3] was greater than 10 min.

As for `COc1ccnc(Nc2nc(-c3nccn3C)nn3cc(-c4cccnc4)c(C)c23)c1` [Compound 157, N-(4-Methoxy-pyridin-2-yl)-5-methyl-2-(1-methyl-1H-imidazol-2-yl)-6-(pyridin-3-yl)pyrrolo[2,1-f][1,2,4]triazin-4-amine], in data set [1], the “% inh” value was “B* (B* = 26-45% activation)”. Further, the solubility at 2 h in data set [2] was less than 10 µM. Moreover, in data set [3], the half-life at 2 µM was greater than 10 min.

As to `COc1ccnc(Nc2nc(-c3nccn3C)nn3cc(-c4ccn(C5CC5)n4)c(C)c23)c1` [Compound 137, 6-(1-Cyclopropyl-1H-pyrazol-3-yl)-N-(4-methoxypyridin-2-yl)-5-methyl-2-(1-methyl-1H-imidazol-2-yl)pyrrolo[2,1-f][1,2,4]triazin-4-amine], the “% inh” value in data set [1] is given as “C (C = 46-75% inhibition)”. The solubility at 2 h in data set [2] lay in the range of 10 to 30 µM. For the same molecule, the half-life at 2 µM in data set [3] was greater than 10 min.

For `COc1ccnc(Nc2nc(-c3nccn3C)nn3cc(-c4cccnc4)c(C)c23)n1` [Compound 158, N-(4-Methoxy-pyrimidin-2-yl)-5-methyl-2-(1-methyl-1H-imidazol-2-yl)-6-(pyridin-3-yl)pyrrolo[2,1-f][1,2,4]triazin-4-amine], the “% inh” value in data set [1] is “B* (B* = 26-45% activation)”. Further, the solubility at 2 h in data set [2] is 10 to 30 µM. Moreover, in data set [3], the half-life at 2 µM is less than 10 min.

With `Cc1c(-c2ccn(C3CC3)n2)cn2nc(-c3nccn3C)nc(Nc3cc(OC4CC4)ccn3)c12` [Compound 142, N-(4-Cyclopropoxypyridin-2-yl)-6-(1-cyclopropyl-1H-pyrazol-3-yl)-5-methyl-2-(1-methyl-1H-imidazol-2-yl)pyrrolo[2,1-f][1,2,4]triazin-4-amine], the “% inh” value in data set [1] was “C (C = 46-75% inhibition)”. For the same molecule, in data set [2], the solubility at 2 h lay in the range of 10 to 30 µM. For the same molecule, the half-life at 2 µM in data set [3] is greater than 10 min.

On to `Cc1c(-c2ccn(C3CC3)n2)cn2nc(-c3nccn3C)nc(Nc3ccccn3)c12` [Compound 143, 6-(1-Cyclopropyl-1H-pyrazol-3-yl)-5-methyl-2-(1-methyl-1H-imidazol-2-yl)-N-(pyridin-2-yl)pyrrolo[2,1-f][1,2,4]triazin-4-amine], for which the “% inh” value in data set [1] is listed as “A (A = 1-25% inhibition)”. Also, the solubility at 2 h in data set [2] is less than 10 µM. Besides, in data set [3], the half-life at 2 µM is less than 10 min.

Regarding `Cc1ccnc(Nc2nc(-c3nccn3C)nn3cc(-c4ccn(C5CC5)n4)c(C)c23)c1` [Compound 144, 6-(1-Cyclopropyl-1H-pyrazol-3-yl)-5-methyl-2-(1-methyl-1H-imidazol-2-yl)-N-(4-methylpyridin-2-yl)pyrrolo[2,1-f][1,2,4]triazin-4-amine], in data set [1], the “% inh” value is reported as “D (D = 76-100% inhibition)”. Besides, in data set [2], the solubility at 2 h is less than 10 µM. For the same molecule, in data set [3], the half-life at 2 µM is greater than 10 min.

As to `Cc1c(-c2ccn(C)n2)cn2nc(-c3nccn3C)nc(Nc3cc4n(n3)CCO4)c12` [Compound 124, N-(5-Methyl-2-(1-methyl-1H-imidazol-2-yl)-6-(1-methyl-1H-pyrazol-3-yl)pyrrolo[2,1-f][1,2,4]triazin-4-yl)-2,3-dihydropyrazolo[5,1-b]oxazol-6-amine], the “% inh” value in data set [1] is “A (A = 1-25% inhibition)”. For the same molecule, the solubility at 2 h in data set [2] is 10 to 30 µM. Besides, the half-life at 2 µM in data set [3] is greater than 10 min.

For `COc1ccnc(Nc2nc(-c3nccn3C)nn3cc(-c4ccn(C)n4)c(C)c23)c1` [Compound 102, N-(4-Methoxypyridin-2-yl)-5-methyl-2-(1-methyl-1H-imidazol-2-yl)-6-(1-methyl-1H-pyrazol-3-yl)pyrrolo[2,1-f][1,2,4]triazin-4-amine], in data set [1], the “% inh” value was “A* (A* = 1-25% activation)”. In data set [2], the solubility at 2 h is greater than 30 µM. The half-life at 2 µM in data set [3] was greater than 10 min.

With `Cc1c(-c2ccn(C3CC3)n2)cn2nc(-c3nccn3C)nc(Nc3cc(N(C)C)ccn3)c12` [Compound 145, N^2-(6-(1-Cyclopropyl-1H-pyrazol-3-yl)-5-methyl-2-(1-methyl-1H-imidazol-2-yl)pyrrolo[2,1-f][1,2,4]triazin-4-yl)-N^4,N^4-dimethylpyridine-2,4-diamine], the “% inh” value in data set [1] is “B* (B* = 26-45% activation)”. Moreover, the solubility at 2 h in data set [2] is 10 to 30 µM. Besides, the half-life at 2 µM in data set [3] is greater than 10 min.

As to `Cc1c(-c2ccn(C)n2)cn2nc(-c3nccn3C)nc(Nc3cc(C4CC4)[nH]n3)c12` [Compound 104, N-(5-Cyclopropyl-1H-pyrazol-3-yl)-5-methyl-2-(1-methyl-1H-imidazol-2-yl)-6-(1-methyl-1H-pyrazol-3-yl)pyrrolo[2,1-f][1,2,4]triazin-4-amine], in data set [1], the “% inh” value is reported as “D* (D* = 76-100% activation)”. Besides, the solubility at 2 h in data set [2] was less than 10 µM. Also, the half-life at 2 µM in data set [3] is greater than 10 min.

Values taken from patent US12459951B2, “Compounds that interact with RAS superfamily proteins for treatment of cancers, inflammatory diseases, rasopathies, and fibrotic disease” (SHY Therapeutics, LLC, priority 2022, dated 2025).
